Test: xn = mol fraction of the nth substance listed
Conditions: 298.15 K, 101.3 kPa

With `CCCC[n+]1cccc(C)c1.O=S(=O)([N-]S(=O)(=O)C(F)(F)F)C(F)(F)F` + CO the electrical conductivity (x2 = 0) was 0.273 S/m, the electrical conductivity (x2 = 0.2345) was 0.453 S/m and the electrical conductivity (x2 = 0.5544) was 0.951 S/m. The electrical conductivity (x2 = 0.7016) was 1.38 S/m, the electrical conductivity (x2 = 0.8346) was 1.93 S/m and the electrical conductivity (x2 = 0.882) was 2.1 S/m. It also gave an electrical conductivity (x2 = 0.9199) of 2.13 S/m.

With `CCCC[n+]1cccc(C)c1.O=S(=O)([N-]S(=O)(=O)C(F)(F)F)C(F)(F)F` + CCO the electrical conductivity (x2 = 0.2427) was 0.445 S/m, the electrical conductivity (x2 = 0.5689) was 0.809 S/m and the electrical conductivity (x2 = 0.7583) was 1.04 S/m. For the same molecule, the electrical conductivity (x2 = 0.8896) was 0.992 S/m, the electrical conductivity (x2 = 0.9196) was 0.883 S/m and the electrical conductivity (x2 = 0.9371) was 0.783 S/m.

Work on `CCCC[n+]1cccc(C)c1.O=S(=O)([N-]S(=O)(=O)C(F)(F)F)C(F)(F)F` + CC(C)O yielded an electrical conductivity (x2 = 0.0802) of 0.334 S/m, an electrical conductivity (x2 = 0.1045) of 0.41 S/m and an electrical conductivity (x2 = 0.1234) of 0.462 S/m. For the same molecule, the electrical conductivity (x2 = 0.1455) was 0.511 S/m, the electrical conductivity (x2 = 0.177) was 0.566 S/m and the electrical conductivity (x2 = 0.2193) was 0.613 S/m. It also gave an electrical conductivity (x2 = 0.2497) of 0.633 S/m, an electrical conductivity (x2 = 0.4682) of 0.587 S/m and an electrical conductivity (x2 = 0.6921) of 0.441 S/m. It also gave an electrical conductivity (x2 = 0.9362) of 0.3 S/m.

`CC(C)O` + CCCC[n+]1cccc(C)c1.O=S(=O)([N-]S(=O)(=O)C(F)(F)F)C(F)(F)F gave an electrical conductivity (x1 = 1) of 0.27 S/m.

— a compilation of properties of binary mixtures (doi:10.1051/jnwpu/20234130557)
